Legend:
[1] = tested on: chondrocytes; test: Alkaline phosphatase (ALP) activity of chondrocytes cultured in a centrifugal tube; format: cell-based, rabbit
Excerpt: (§1) In the following Examples, grown chondrocytes were separated from the subchondral bone to bone transition area of rabbits 4 weeks old from birth by the method of Shimomura et al. (Shimomura, Y. et al., Calcif. Tissue Res. 19, 179-187, 1975). The separated chondrocytes were cultivated by the method of Iwamoto et al. (Iwamoto, M. et al. Dev. Biol. 136 500-507, 1989) and the method of Kato et al. (Kato, Y. et al. Endocrinology, 127, 114-118, 1990). Stated specifically, the separated chondrocytes were suspended in an Eagle's minimum essential medium (MEM) to give a concentration of 8×10^4 cells/mL in the presence of 10% fetal bovine serum (FBS) and 50 μg/mL of ascorbic acid and then seeded in 1-mL portions into 15-mL plastic centrifugal tubes (Corning). After 5-min centrifugation (at 1,500 rpm), the cells were cultivated in a CO2 gas incubator having a temperature setting of 37° C. Starting on the 6th day of the cultivation, medium changes were made every other day. The presence of PTHrP receptors in the chondrocytes was verified by SDS gel electrophoresis. Stated specifically, the chondrocytes cultured for 14 days were homogenized and incubated with ^125I labelled PTHrP for 5 h. The PTHrP binding to the receptors was crosslinked with DSS, solubilized with a SDS buffer solution and electrophoresed through a SDS gel. After the electrophoresis, autoradiography was performed in the usual manner. As a control, excess PTHrP, was added to prevent the binding of ^125I labelled PTHrP to the receptors and the unbound PTHrP was electrophoresed by the same procedure and subjected to autoradiography.
As in Example 1, chondrocytes were cultured in a centrifugal tube. On the 8th day of the cultivation, 10^−7 M of PTHrP was added and the cultivation was continued for a period of up to 28 days. On the 21st day of the cultivation, a PTHrP free group was set and compared with the PTHrP treated group. In another experiment, PTHrP was added in varying amounts from […] and the dose-response relationship with the alkaline phosphatase activity (ALP activity) was verified. For the measurement of ALP activity, chondrocyte clusters were homogenized in 0.2% Triton X-100, centrifuged at 12,000 xg for 15 min and the supernatant was assayed by the method of Bessey et al. (Bessey O. A. et al., J. Biol. Chem. 164, 321-329, 1946). To investigate the progress of calcification, 0.5 μCi of ^45Ca was added at suitable intervals and its incorporation into the chondrocytes after 24 h, as well as the Ca level on the 28th day of the cultivation were measured.

[2] = tested on: mRNA of type X collagen; test: Expression of mRNA of type X collagen in cultured chondrocytes (hybridization with 32P cDNA probe); format: cell-based, rabbit; conditions: 10^−8 and 10^−7 M PTHrP, last 6 days of 30-day cultivation; FIG. 9
Experimental: (§2) As in Example 1, grown chondrocytes were separated from the subchondral bone to bone transition area of rabbits 4 weeks old from birth by the method of Shimomura et al. (Shimomura, Y. et a., Calcif. Tissue Res. 19, 179-187, 1975). The separated chondrocytes were suspended in an Eagle's minimum essential medium (MEM) containing 10% fetal bovine serum and 50 μg/mL of ascorbic acid and seeded on a 3.5-cm Petri dish coated with type I collagen, each well containing 5,000 cells. Following 30-day cultivation, 10^−8 and 10^−7 M of PTHrP was brought into action for the last 6 days. RNA was prepared from the cultured cells by the CsTFA method (Smale and Sasse, Anal. Biochem. 203, 352-356. 1992), separated by electrophoresis and thereafter transferred onto a membrane. The membrane onto which the RNA had been transferred was hybridized with a ^32P labelled cDNA probe for type X and II collagens.

[3] = tested on: chondrocytes; test: Calcification of chondrocytes (45Ca incorporation, Ca level) in centrifugal tube culture; format: cell-based, rabbit
Excerpt: as §1
As in Example 1, chondrocytes were cultured in a centrifugal tube. On the 8th day of the cultivation, 10^−7 M of PTHrP was added and the cultivation was continued for a period of up to 28 days. […] To investigate the progress of calcification, 0.5 μCi of ^45Ca was added at suitable intervals and its incorporation into the chondrocytes after 24 h, as well as the Ca level on the 28th day of the cultivation were measured.

[4] = tested on: grown chondrocytes; test: Cartilage matrix proteoglycan synthesis (incorporation of labelled sulfuric acid) in cultured chondrocytes; format: cell-based, rabbit; conditions: FIG. 2
Experimental: As in Example 1, grown chondrocytes were separated from the subchondral bone to bone transition area of rabbits 4 weeks old from birth by the method of Shimomura et al. (Shimomura, Y. et al., Calcif. Tissue Res. 19, 179-187, 1975). The separated chondrocytes were suspended in an Eagle's minimum essential medium (MEM) containing 10% fetal bovine serum and 50 μg/mL of ascorbic acid and seeded in a 96-well culture plate at a concentration of 5,000 cells in each well. When the cells became confluent, PTHrP was added and, one day later, 1 μCi of […] was added per well, followed by 17-h cultivation. The amount of cartilage matrix produced in the supernatant of the culture solution was measured by the method of Kato et al. (Kato, Y. et al., Endocrinology 122, 1991-1997, 1988). Briefly, the quantity of […] incorporated into proteoglycans was measured.

[5] = molecular target: T1, PTHrP receptors (Oryctolagus cuniculus, UniProt G1T397); test: Binding of 125I labelled PTHrP to receptors in chondrocyte homogenate (DSS crosslinking, SDS gel electrophoresis, autoradiography); set-up: species or system rabbit; conditions: addition of excess PTHrP; chondrocytes cultured 14 days, homogenized; FIG. 1
T1 construct: the chondrocytes cultured for 14 days were homogenized and incubated with ^125I labelled PTHrP for 5 h; endogenous in cells; host or cells: primary rabbit growth-plate chondrocytes, 14-day pellet culture, homogenized
T1 sequence (G1T397 29-589): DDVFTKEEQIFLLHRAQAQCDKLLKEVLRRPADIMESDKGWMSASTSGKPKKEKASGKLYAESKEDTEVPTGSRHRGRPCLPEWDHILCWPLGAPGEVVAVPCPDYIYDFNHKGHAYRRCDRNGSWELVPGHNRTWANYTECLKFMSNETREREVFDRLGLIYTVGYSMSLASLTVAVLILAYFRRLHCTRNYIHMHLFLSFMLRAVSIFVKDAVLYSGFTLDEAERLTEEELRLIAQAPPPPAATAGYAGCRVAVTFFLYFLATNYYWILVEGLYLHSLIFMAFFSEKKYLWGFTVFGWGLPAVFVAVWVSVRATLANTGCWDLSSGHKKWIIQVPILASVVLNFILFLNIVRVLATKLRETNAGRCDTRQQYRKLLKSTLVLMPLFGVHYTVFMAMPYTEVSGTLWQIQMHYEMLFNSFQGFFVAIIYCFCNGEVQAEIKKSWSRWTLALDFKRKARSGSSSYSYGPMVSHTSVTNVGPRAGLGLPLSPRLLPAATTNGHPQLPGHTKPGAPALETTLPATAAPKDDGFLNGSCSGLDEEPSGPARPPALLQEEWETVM
Excerpt: as §1, with “After the electrophoresis, autoradiography was performed in the usual manner. As a control, excess PTHrP, was added to prevent the binding of ^125I labelled PTHrP to the receptors and the unbound PTHrP was electrophoresed by the same procedure and subjected to autoradiography.” left out

[6] = tested on: mRNA of type II collagen; test: Expression of mRNA of type II collagen in cultured chondrocytes (hybridization with 32P cDNA probe); format: cell-based, rabbit; conditions: 10^−8 or 10^−7 M PTHrP, last 6 days of 30-day cultivation; FIG. 9
Experimental: as §2

[7] = tested on: chondrocytes; test: Growth of chondrocytes cultured in a centrifugal tube (DNA content); format: cell-based, rabbit; conditions: 10^−7 M added on 8th day, up to 28 days; 10^−10 to 10^−7 M, 21st day; FIG. 3, 4
Excerpt: In the following Examples, grown chondrocytes were separated from the subchondral bone to bone transition area of rabbits 4 weeks old from birth by the method of Shimomura et al. (Shimomura, Y. et al., Calcif. Tissue Res. 19, 179-187, 1975). The separated chondrocytes were cultivated by the method of Iwamoto et al. (Iwamoto, M. et al. Dev. Biol. 136 500-507, 1989) and the method of Kato et al. (Kato, Y. et al. Endocrinology, 127, 114-118, 1990). Stated specifically, the separated chondrocytes were suspended in an Eagle's minimum essential medium (MEM) to give a concentration of 8×10^4 cells/mL in the presence of 10% fetal bovine serum (FBS) and 50 μg/mL of ascorbic acid and then seeded in 1-mL portions into 15-mL plastic centrifugal tubes (Corning). After 5-min centrifugation (at 1,500 rpm), the cells were cultivated in a CO2 gas incubator having a temperature setting of 37° C. Starting on the 6th day of the cultivation, medium changes were made every other day. […]
As in Example 1, chondrocytes were cultured in a centrifugal tube. […] After the cultivation, the cells were solubilized at appropriate intervals and the time-dependent changes in DNA content were measured. In another experiment, PTHrP was added at varying concentrations from 10^−10 to 10^−7 M and the DNA content on the 21st day of the cultivation was measured.

ALP activity of the chondrocytes ([1]; 10^−7 M PTHrP added on 8th day, up to 28 days, PTHrP Treated Group, FIG. 5): suppressed
ALP activity ([1]; 10^−8 M PTHrP, FIG. 6): suppressed almost completely
concentration at which PTHrP started to suppress the ALP activity ([1]; dose response, 21st day, FIG. 6): above 10^−9 M
binding of 125I labelled PTHrP to the receptors [5]: completely prevented
Substance: PTHrP: human 1-34PTHrP purchased from the Peptide Institute, Inc.; partial peptide of PTHrP, 34 amino acids from the N terminus
ALP activity after PTHrP was eliminated from the culture solution ([1]; PTHrP removed on 21st day of cultivation, PTHrP Free Group, FIG. 5): restored to the level of the control group
expression of the mRNA of type X collagen [2]: significantly inhibited
incorporation of 45Ca into the chondrocytes ([3]; 10^−7 M PTHrP, PTHrP Treated Group, FIG. 7): suppressed
effect on 45Ca incorporation when PTHrP was removed ([3]; PTHrP Free Group, FIG. 7): soon disappeared
calcification of chondrocytes ([3]; concentrations higher than 10^−8 M PTHrP, FIG. 8): completely suppressed
matrix synthesizing capability relative to control (incorporation of 35S-sulfuric acid into proteoglycans) ([4]; 10^−6 M PTHrP): about 3 times
incorporation of 35S-sulfuric acid into proteoglycans ([4]; 10^−10 to 10^−6 M PTHrP, dose response): accelerated the incorporation of ^35S-sulfuric acid into proteoglycans in a dose-dependent manner
expression of the mRNA of type II collagen [6]: no effects
DNA content of the chondrocytes [7]: not influenced at all

— US6787518B1, “Therapeutics of osteoarthritis and inflammatory joint disease” (priority 1995, dated 2004)
